Data taken from patent US12161117B2, “Agrochemical combinations” (UPL LTD, priority 2018, dated 2024).

Key:
[1] = test system: Fruit and shoot borer; test: Trial of the combination Chlorantraniliprole+Novaluron+Bifenthrin on Fruit and shoot borer in paddy; type: in vivo; settings: solo
Description: Trials were conducted to test the efficacy of the combination of Chlorantraniliprole+Novaluron+Bifenthrin on Fruit and shoot borer in paddy: […]

[2] = test system: white ears; test: Trial of the combination Chlorantraniliprole+Novaluron+Bifenthrin on white ears in paddy; type: in vivo; settings: solo
Description: Trials were conducted to test the efficacy of the combination of Chlorantraniliprole+Novaluron+Bifenthrin on white ears in paddy: […]

## O=C(NC(=O)c1c(F)cccc1F)Nc1ccc(OC(F)(F)C(F)OC(F)(F)F)c(Cl)c1 (stereo not drawn) [Novaluron]
[1]; 3 DAA, dose 100 gm ai/ha
  Percent control Fruit and shoot borer: 64.3%
[1]; 7 DAA, dose 100 gm ai/ha
  Percent control Fruit and shoot borer: 75%
[1]; 10 DAA, dose 100 gm ai/ha
  Percent control Fruit and shoot borer: 68.3%
[1]; 14 DAA, dose 100 gm ai/ha
  Percent control Fruit and shoot borer: 64.3%
[2]; 3 DAA, dose 100 gm ai/ha
  Percent control Fruit and shoot borer: 5%
[2]; 7 DAA, dose 100 gm ai/ha
  Percent control Fruit and shoot borer: 6%
[2]; 10 DAA, dose 100 gm ai/ha
  Percent control Fruit and shoot borer: 5.9%
[2]; 14 DAA, dose 100 gm ai/ha
  Percent control Fruit and shoot borer: 4.9%

## CNC(=O)c1cc(Cl)cc(C)c1NC(=O)c1cc(Br)nn1-c1ncccc1Cl [Chlorantraniliprole, 3-bromo-4′-chloro-1-(3-chloro-2-pyridyl)-2′-methyl-6′-(methylcarbamoyl)pyrazole-5-carboxanilide]
[1]; 3 DAA, dose 30 gm ai/ha
  Percent control Fruit and shoot borer: 79.3%
[1]; 7 DAA, dose 30 gm ai/ha
  Percent control Fruit and shoot borer: 90%
[1]; 10 DAA, dose 30 gm ai/ha
  Percent control Fruit and shoot borer: 88.3%
[1]; 14 DAA, dose 30 gm ai/ha
  Percent control Fruit and shoot borer: 78.4%
[2]; 3 DAA, dose 30 gm ai/ha
  Percent control Fruit and shoot borer: 5%
[2]; 7 DAA, dose 30 gm ai/ha
  Percent control Fruit and shoot borer: 6%
[2]; 10 DAA, dose 30 gm ai/ha
  Percent control Fruit and shoot borer: 5.9%
[2]; 14 DAA, dose 30 gm ai/ha
  Percent control Fruit and shoot borer: 4.9%

## Cc1c(COC(=O)[C@@H]2[C@H](/C=C(\Cl)C(F)(F)F)C2(C)C)cccc1-c1ccccc1 (racemic) [Bifenthrin]
[1]; 3 DAA, dose 60 gm ai/ha
  Percent control Fruit and shoot borer: 54.3%
[1]; 7 DAA, dose 60 gm ai/ha
  Percent control Fruit and shoot borer: 71%
[1]; 10 DAA, dose 60 gm ai/ha
  Percent control Fruit and shoot borer: 64.3%
[1]; 14 DAA, dose 60 gm ai/ha
  Percent control Fruit and shoot borer: 58.3%
[2]; 3 DAA, dose 60 gm ai/ha
  Percent control Fruit and shoot borer: 80%
[2]; 7 DAA, dose 60 gm ai/ha
  Percent control Fruit and shoot borer: 79%
[2]; 10 DAA, dose 60 gm ai/ha
  Percent control Fruit and shoot borer: 55%
[2]; 14 DAA, dose 60 gm ai/ha
  Percent control Fruit and shoot borer: 38%
